Literature values, collected in CN101444491A, “奥扎格雷钠微球冻干制剂及其制备方法” (HAINAN SHU ER PHARMACEUTICAL RESEARCH Co Ltd, priority 2008, dated 2009).

What was measured:
[1] = after conversion into sodium salt (JP2001316265)

| solubility in water | stability in aqueous solution [1] | SMILES |
| --- | --- | --- |
| 溶解度较小 |  | O=C(O)/C=C/c1ccc(Cn2ccnc2)cc1 [奥扎格雷] |
|  | 稳定性下降 | O=C(O)/C=C/c1ccc(Cn2ccnc2)cc1 [奥扎格雷钠, 钠盐] |
